“And” between values parts separate entries of the source, which are not always exact repeats. Identical values can stand only once. Like-named read-outs stand apart in the source and are kept apart here.
How the values were obtained:
[1] = 26-week rat toxicity and toxicokinetic study; format: in vivo; details: for AUC(0-t): Crl:CD(SD)IGS BR, rat, plasma, po, 8 mg/kg/day, EB-1010 8 mg/kg/day, read-out: AUC0-24 of metabolite
Protocol: A portion of the animals from each group was maintained for an additional 4-week post-treatment recovery period.
For toxicology assessment, groups comprised thirty animals of each gender. Assessments included clinical observations, body weight, and food consumption measures noted periodically during the study. […] Ophthalmic examinations were performed during Weeks 1 and 13. […] In addition, the liver, vagina, and ovaries were identified as potential target tissues and were examined microscopically for all animals from all groups at the primary and recovery necropsies. […] 10 animals of each gender from each group were held to week 30 for a 4-week post-treatment recovery period.
For the toxicokinetic studies, there were ten animals of each gender in each group.

[2] = 13-week mouse toxicity and toxicokinetic study; details: Crl:CD-1(ICR) BR, in vivo, 0 day
Protocol: For toxicology assessment ten mice of each gender were placed in each group.
Ophthalmic examinations were performed during Weeks −1 and 12.

[3] = Crl:CD-1(ICR) BR, mouse, in vivo
[4] = Single dose 300 mg / 450 mg pharmacokinetic, safety and tolerability study in healthy male and female subjects; details: for Cmax / half-life / Tmax / AUC(0-t) / concentration at 0 h / concentration at 0.5 h / concentration at 1 h / concentration at 2 h / concentration at 3 h / concentration at 4 h / concentration at 6 h / concentration at 8 h / concentration at 10 h / concentration at 12 h / concentration at 18 h / concentration at 24 h / concentration at […]: human, plasma
Description: Fourteen subjects, divided equally between males and females, were enrolled in the study and randomized between test article (5/sex) and placebo (2/sex). […] All subjects met the inclusion and exclusion criteria for entry into the study as detailed in the protocol and signed an informed consent form.
The subjects were confined to the clinical study site from Day −1 to the morning of Day 2, when they underwent a brief physical examination, clinical laboratory tests, and a physician visit before they were discharged. On Day 7, they reported to the clinical site again and were confined to the site until the morning of Day 9. At that time, they underwent a complete physical examination, clinical laboratory tests, and a physician's visit before they were discharged from the study. All subjects were fasted overnight on Days −1 and 7 from approximately 22:00 to approximately 4 hours post-dose on Days 1 and 8, at which time they received a standard lunch.
Subjects that received the placebo (2/sex) ingested six identical looking capsules with no drug. […] Capsules on both days were ingested with 240 mL water. […] Samples were collected into lithium heparin-containing Vacutainers® and centrifuged at approximately 3000 rpm to obtain the plasma fraction. The plasma was split into two polypropylene tubes and stored at −20° C. […] The urine volumes were recorded and an aliquot was stored for drug concentration measurements.
Validated LC/MS/MS assays were used for analyses; the assay range for both analytes in plasma and urine were 5.00 to 2000 ng/mL.
Plasma concentration-time data for each subject were analyzed with WinNonlin, version 4.1 (Pharsight Corporation, Mountain View, Calif.) using a non-compartmental model. […] Plasma concentrations listed as not detected (ND) or below the lower limit of quantitation (LLOQ) were set to zero. The values of Cmax and Tmax were the observed values for each subject. AUC0-t was determined using the linear trapezoidal rule whenever the concentration data were increasing and the logarithmic trapezoidal rule any time that the concentration data were decreasing. The apparent λz was calculated as the negative slope of the log-linear terminal portion of the blood concentration-time curve using linear regression. To allow for accurate calculation of λz, a minimum of three observations, selected by WinNonlin, was used. The t½ was calculated as ln 2/λz. AUC0-t was extrapolated to infinity (AUC0-∞) as follows: AUC0-∞=AUC0-t+Clast/λz where Clast is the last quantifiable concentration. The apparent oral clearance (CL/F) was calculated as Dose/AUC0-∞. The apparent oral volume of distribution (Vz/F) was calculated as Dose/λz×AUC0-∞. The mean residence time from time zero to infinity (MRT0-∞) was calculated as AUMC0-∞/AUC0-∞.

O=C1NCC2(c3ccc(Cl)c(Cl)c3)CC12 (stereo not drawn) [EB-10101, 5-(3,4-dichloro-phenyl)-3-aza-bicyclo[3.1.0]hexan-2-one]
AUC0-24 of metabolite relative to parent drug ([1]; Day 0): approximately 7 fold | AUC0-24 of metabolite relative to parent drug ([1]; Day 177): ≤ 14 fold | AUC(0-t) ([1]; female, females, Day 177): 88100 ng·h/mL | AUC(0-t) ([1]; male, males, Day 177): 80400 ng·h/mL | exposure to metabolite relative to parent drug [2]: 2-5 fold | AUC0-24 of metabolite relative to parent drug [3]: 2-5 fold | AUC0-24 of metabolite relative to parent drug ([3]; 150 mg/kg/day): ≤ 10 fold | AUC24-∞ as share of total exposure ([4]; 300 mg): 38% | concentration at 24 hr as % of Cmax ([4]; 300 mg): 50% | ingested dose in urine as lactam (0-24 hr) ([4]; 300 mg): 0.075% | AUC24-∞ as share of total exposure ([4]; 450 mg): 54% | concentration at 24 hr as % of Cmax ([4]; 450 mg): 65% | ingested dose in urine as lactam (0-24 hr) ([4]; 450 mg): 0.067% | Cmax ([4]; both, oral, 300 mg): 2030 ng/mL | half-life ([4]; both, oral, 300 mg, harmonic mean of half-life of lactam): 14.3 h | Cmax ([4]; both, oral, 450 mg): 2950 ng/mL | Tmax ([4]; both, oral, 450 mg): 7.8 to 9 h | half-life ([4]; both, oral, 450 mg, harmonic mean of half-life of lactam): 19.8 h | AUC(0-t) ([4]; both, po, 300 mg): 33300 ng·h/mL | Cmax ([4]; both, po, 300 mg): 2030 ng/mL | Tmax ([4]; both, po, 300 mg): 7.8 h | concentration at 0 h ([4]; both, po, 300 mg): 0 ng/mL | concentration at 0.5 h ([4]; both, po, 300 mg): 42.8 ng/mL | concentration at 1 h ([4]; both, po, 300 mg): 296 ng/mL | concentration at 2 h ([4]; both, po, 300 mg): 900 ng/mL | concentration at 3 h ([4]; both, po, 300 mg): 1410 ng/mL | concentration at 4 h ([4]; both, po, 300 mg): 1540 ng/mL | concentration at 6 h ([4]; both, po, 300 mg): 1690 ng/mL | concentration at 8 h ([4]; both, po, 300 mg): 1900 ng/mL | concentration at 10 h ([4]; both, po, 300 mg): 1830 ng/mL | concentration at 12 h ([4]; both, po, 300 mg): 1580 ng/mL | concentration at 18 h ([4]; both, po, 300 mg): 1390 ng/mL | concentration at 24 h ([4]; both, po, 300 mg): 1010 ng/mL | concentration at […] ([4]; both, po, 300 mg): 1.52 ng/mL and 175 ng/mL and 473 ng/mL and 589 ng/mL | half-life ([4]; both, po, 300 mg, t½ (Harmonic mean), single oral 300 mg DOV 21,947 HCl IR, N = 10): 14.3 h | half-life ([4]; both, po, 300 mg, t½, single oral 300 mg DOV 21,947 HCl IR, arithmetic mean, N = 10): 15.4 h | AUC(0-t) ([4]; both, po, 450 mg): 50700 ng·h/mL | Cmax ([4]; both, po, 450 mg): 2950 ng/mL | Tmax ([4]; both, po, 450 mg): 9 h | concentration at 0 h ([4]; both, po, 450 mg): 0 ng/mL | concentration at 0.5 h ([4]; both, po, 450 mg): 71 ng/mL | concentration at 1 h ([4]; both, po, 450 mg): 337 ng/mL | concentration at 2 h ([4]; both, po, 450 mg): 1330 ng/mL | concentration at 3 h ([4]; both, po, 450 mg): 1820 ng/mL | concentration at 4 h ([4]; both, po, 450 mg): 2160 ng/mL | concentration at 6 h ([4]; both, po, 450 mg): 2520 ng/mL | concentration at 8 h ([4]; both, po, 450 mg): 2670 ng/mL | concentration at 10 h ([4]; both, po, 450 mg): 2770 ng/mL | concentration at 12 h ([4]; both, po, 450 mg): 2620 ng/mL | concentration at 18 h ([4]; both, po, 450 mg): 2010 ng/mL | concentration at 24 h ([4]; both, po, 450 mg): 1920 ng/mL | concentration at […] ([4]; both, po, 450 mg): 0 ng/mL and 184 ng/mL and 646 ng/mL and 807 ng/mL | half-life ([4]; both, po, 450 mg, t½ (Harmonic mean), single oral 450 mg DOV 21,947 HCl IR, N = 10): 19.8 h | half-life ([4]; both, po, 450 mg, t½, single oral 450 mg DOV 21,947 HCl IR, arithmetic mean, N = 10): 32.6 h | AUC(0-t) ([4]; female, po, 300 mg): 37300 ng·h/mL | Cmax ([4]; female, po, 300 mg): 2320 ng/mL | Tmax ([4]; female, po, 300 mg): 9.2 h | concentration at 0 h ([4]; female, po, 300 mg): 0 ng/mL | concentration at 0.5 h ([4]; female, po, 300 mg): 22.8 ng/mL | concentration at 1 h ([4]; female, po, 300 mg): 188 ng/mL | concentration at 2 h ([4]; female, po, 300 mg): 760 ng/mL | concentration at 3 h ([4]; female, po, 300 mg): 1340 ng/mL | concentration at 4 h ([4]; female, po, 300 mg): 1600 ng/mL | concentration at 6 h ([4]; female, po, 300 mg): 1870 ng/mL | concentration at 8 h ([4]; female, po, 300 mg): 2210 ng/mL | concentration at 10 h ([4]; female, po, 300 mg): 1980 ng/mL | concentration at 12 h ([4]; female, po, 300 mg): 1760 ng/mL | concentration at 18 h ([4]; female, po, 300 mg): 1690 ng/mL | concentration at 24 h ([4]; female, po, 300 mg): 1190 ng/mL | concentration at […] ([4]; female, po, 300 mg): 0 ng/mL and 111 ng/mL and 317 ng/mL and 426 ng/mL | half-life ([4]; female, po, 300 mg, t½ (Harmonic mean), single oral 300 mg DOV 21,947 HCl IR, N = 5): 15 h | half-life ([4]; female, po, 300 mg, t½, single oral 300 mg DOV 21,947 HCl IR, N = 5, arithmetic mean): 15.5 h | AUC(0-t) ([4]; female, po, 450 mg): 55300 ng·h/mL | Cmax ([4]; female, po, 450 mg): 3360 ng/mL | Tmax ([4]; female, po, 450 mg): 8.8 h
